Test results published in patent publication US6001880A, “Alkylenediamine derivative, anti-ulcer drug, and antibacterial drug” (Shiseido Co., Ltd., priority 1997, dated 1999).

Experiments:
[1] = test system: mice; design: species or system mouse (male Slc:ICR); conditions: mouse, in vivo
Experimental: AT: Single Dose Toxicity Pretest
Male Slc:ICR mice (5-week-old) were used. Each group has 3 to 5 mice and each mouse was fasted, but allowed free access to water, for 4 to 5 hours from 9 a.m. in the test day. Then, 2,000 mg/10 ml/kg of the sample compound dissolved or suspended in an aqueous solution of 0.5% sodium carboxymethyl cellulose was orally administered thereto. To a control, only the vehicle was administered. […] The body weight was measured before and after the fasting as well as at the same time everyday. The dead animals were immediately subjected to autopsy and their organs were observed by naked eyes. Also, the living animals were sacrificed with ether or carbon dioxide one week after the administration and then their organs were observed by naked eyes.
The toxicity at the single dose of 2,000 mg/kg of the sample compound was expressed as being classified into 5 levels.
5: mortality rate is 0%; no toxicity is found at all both in behavior and organs.
4: Mortality rate is 0%; while no toxicity is found in organs, slight toxicity is observed in behavior or body weight increase.
3: While there is a dead animal (though not all the animals are dead), no toxicity is found in organs.
2: Regardless of whether there is a dead animal or not, toxicity is found in organs.
1: All the animals are dead.

[2] = test system: isolated gastric fundic gland; assay: CAP: Acid Secretion Inhibition Test In Vitro ([14C]-aminopyrine uptake); assay type: cell-based, rabbit (male Japanese White); conditions: Oryctolagus cuniculus; final concentration 10^-5 M; histamine 10^-5 M stimulation; read-out: CAP: acid secretion inhibitory rate
Experimental: CAP: Acid Secretion Inhibition Test In Vitro
The acid secretion inhibitory activity in a cell level is studied. It can also be used for studying the mechanism of the effect.
First, an isolated gastric fundic gland sample was prepared. Namely, a male Japanese White rabbit (2.5 to 3 kg) was anesthetized to death with Nembutal™ and then the abdomen was incised. Immediately thereafter, the stomach was removed and, after its pyloric and cardiac antrum were severed, incised along its greater curvature into two sheets. The gastric contents adhering to the mucosal surface was washed out with ice-cooled PBS (-) and then carefully washed therein. The gastric wall was spread on a cork board with its mucosal surface facing up and the feed and mucus thereon were completely removed with sterile gauze. The mucosa was separated therefrom by a spatula and then collected in ice-cooled PBS (-). After being washed twice with PBS (-), the mucosa was minced into 2-3 mm^3 pieces by scissors. These pieces were further washed twice with a nutrient solution. The nutrient solution comprises 132.4 mM of NaCl, 5.4 mM of KCl, 5 mM of Na2 HPO4. 12H2 O, 1 mM of NaH2 PO4.2H2 O, 1.2 mM of MgSO4, 1 mM of CaCl2, 25 mM of HEPES, 2 mg/ml of glucose, and 1 mg/ml of BSA.
Into 70 ml of the nutrient solution containing 1 mg/ml of collagenase, minced mucosal pieces were dispersed and intensely stirred in a conical flask with a stirrer at 37° C. for 40 to 60 minutes. During this period, 100% O2 was sprayed on the nutrient solution surface and the pH was appropriately measured such that it was immediately adjusted to pH 7.4, when the value was therebelow, with a base. The nutrient solution was added to the reaction solution so as to attain the total amount of about 200 ml. After being filtered through a mesh, the suspension was divisionally introduced into 50 ml centrifuge tubes and left for 15 minutes such that gastric fundic gland was deposited. The supernatant was repeatedly removed by an aspirator, dispersed in the nutrient solution, and then left such that the gastric fundic gland was washed three times. At this time, without using a pipette, the suspension was alternately introduced into two centrifuge tubes so as to effect dispersion. The number of cells was counted under microscope and adjusted to 1.6×10^6 cells/ml.
Then, [^14 C]-aminopyrine uptake test was performed. After an Eppendorf tube was weighed, 10 μl (final concentration: 10^-5 M) of histamine dissolved in the above-mentioned nutrient solution, 10 μl (final concentration: […]) of the test compound dissolved in DMSO, and 10 μl (final concentration: 0.05 μCi/ml) of [^14 C]-aminopyrine diluted with the nutrient solution were introduced therein and then 970 μl of the isolated gastric fundic gland suspension prepared above was added thereto. Subsequently, this mixture was shaken at 37° C. for 40 minutes at 125 cycles/minute. After being centrifuged for 30 seconds, 200 μl of its supernatant was collected into a mini-vial, while the rest was removed by an aspirator. The gland pellet was completely dried as the tube with its lid being opened was kept for one night in a drying oven at 80° C. and then the lid was closed and the weight was determined at room temperature. Then 100 μl of 1N KOH was added thereto and the tube with its lid being closed was treated at 60° C. for 1 to 2 hours so as to dissolve the pellet. Then, the contents thereof were transferred to a mini-vial. Into the mini-vial containing the supernatant or gland pellet, 4 ml of Atomlite™ was added and then the radioactivity was measured by a liquid scintillation counter. Here, after the radioactivity of the gland pellet was corrected by using a sample in which 20 mM of NaSCN was added so as to cancel the hydrogen ion concentration gradient, the integration ratio of aminopyrine specifically trapped by the gland pellet was calculated. This experiment was performed in duplicate.
Here, its principle will be briefly explained. […]

[3] = test system: stress ulcer formation in rats; assay: WIS: Restraint and Water Immersion Stress-Induced Ulcer Inhibition Test; assay type: in vivo, rat (male Crj:SD or Slc:SD); conditions: 100 mg/kg oral, 10 minutes before 7 h restraint and water immersion (21° C.)
Experimental: WIS: Restraint and Water Immersion Stress-Induced Ulcer Inhibition Test
The degree of inhibition of the stress ulcer formation is tested.
Male Crj:SD or Slc:SD rats (6 to 7-week-old) were fasted overnight, but allowed free access to water. Each group has 5 to 8 of these rats. The sample compound was dissolved or suspended in an aqueous solution of 0.3% sodium carboxymethylcellulose or 0.05% Tween 80 and then was orally administered (100 mg/10 ml/kg). To a control group, the vehicle was administered. 10 minutes later, the rats were placed in a stress cage and immersed to the level of xipfoid process in a water bath (21° C.) for 7 hours. At the end of the stress, the rats were sacrificed by inhalation of ether or carbon dioxide. Then, the stomach of each was removed, inflated by injecting 10 ml of 5% formalin neutral buffer solution, and immersed in 1% formalin neutral buffer solution for 30 minutes or more to be fixed. The stomach was incised along the greater curvature and then the length of each erosion in the glandular portion was determined under dissecting microscope. The sum of the length of erosions per stomach was defined as ulcer index (UI).
The effect obtained when 100 mg/kg of the sample compound had been administered was expressed as ulcer formation inhibitory rate (%) as follows:
ulcer formation inhibitory rate (%)=(1-(UI in sample group/UI in control

[4] = test system: Helicobacter pyroli (HP NCTC 11637); assay: AHP: Antibacterial Activity Test Against Helicobacter pyroli (agar dilution); assay type: cell-based, Helicobacter pyroli NCTC 11637; conditions: MIC 100 μg/ml or more; colony number vs control plate, 250 mM solution of sample compound
Experimental: AHP: Antibacterial Activity Test Against Helicobacter pyroli The minimum inhibitory concentration (MIC) against Helicobacter pyroli (microacrophilic gram-negative bacterium which is supposed to deeply involve in pathogenesis, relapse, and recrudescence of ulcer, referred to as "HP" in the following) is measured so as to find out compounds which have antibacterial activity against Helicobacter pyroli. MICs were determined by the agar dilution method. The stock culture (-80° C.) of HP NCTC 11637 was thawed and cultured on tripticase soy agar supplemented with 5% sheep blood at 37° C. in an atmosphere of 5% O2, 10% CO2, and 85% N2. Grown colonies were transferred to the same plate and precultured for 3 days under the same condition. […] An appropriate amount of the colony grown on the plate by preculturing was suspended in Mueller Hinton broth till turbidness was recognizable by naked eyes, thereby yielding a bacterial suspension concentrate containing about 10^7 cfu/ml. […] 10 μl of the bacterial suspension for inoculation (about 10^3 cfu) was dropped by dispenser onto an MIC plate for inoculation and cultured for 7 days under the same condition as that of preculture. Thereafter, it was judged whether there had been bacteria growth or not. […] As the result of the comparison of these plates, when the number of the colony on the plate containing the sample compound was less than 90% with respect to that on the control plate, it was represented by "+". Contrary to this, when there was 90% or more, it was represented by "-".

[5] = MTT: Cell Damaging and Protecting Effect Test; assay type: cell-based, rabbit (male Japanese White); conditions: rabbit, gastric corpus mucosa cells, final concentration 10^-4 M, smaller value is better, read-out: MTT: cell damaging rate
From the text: MTT: Cell Damaging and Protecting Effect Test
It is confirmed that there is no toxicity in cell level. Those having a toxicity in cell level are inappropriate as an anti-ulcer drug.
A male Japanese White rabbit (2.5 to 3 kg) was anesthetized to death by Nembutal™ and, immediately thereafter, its stomach was removed. The greater curvature of the stomach was incised so as to remove the stomach contents therefrom. After the mucosal surface was washed with HBSS (Hanks' Balanced Salt Solution), the stomach in ice-cooled HBSS was transferred to a laboratory. Then, after the pyloric antrum was removed, the gastric corpus mucosa was separated by a spatula and then minced into 2 to 3 mm^3 pieces in BME (Basal Medium Eagle). Thereafter, these pieces were shaken at 120 to 130 cycles/minute for 15 minutes at 37° C. in BME 60 ml containing 280 U/ml of dispase and 30 to 50 U/ml of collagenase. Here, the concentration of collagenase was appropriately changed for each lot in view of the state of cells. The pieces were washed twice with EBSS (Earle's Balanced Salt Solution) containing 1 mM of EDTA and then shaken in MEM (Minimum Essential Medium) containing 1 mM of EDTA at 37° C. for 5 minutes. Subsequently, they were shaken in the dispase and collagenase having the same concentrations as those mentioned above for 15 minutes so as to remove the supernatant and then further shaken at 37° C. for 50 to 60 minutes at 120 to 130 cycles/minute. Then, after being washed twice with HBSS, Ham F12 containing 2% of Ultrocer G™ was used to attain the concentration of 1×10^6 cells/ml. Thus formed suspension was dispensed in each well of a 96-well plate by 200 μl. The plate was incubated in the atmosphere composed of 5% CO2 and 95% air at 37° C. for three days so as to attain a confluent state and then subjected to MTT assay.
The sample compound was dissolved in DMSO so as to attain a concentration of 10^-2 M and then diluted with HBSS containing 2% of Ultrocer G™ so as to attain a final concentration of 10^-4 M. To each group, which 8 wells were used for, 10 μl of MTT reagent was added immediately after 100 μl of the medium in each well was exchanged for same volume of the resulting solution of the sample compound. After being incubated in an atmosphere composed of 5% CO2 and 95% air at 37° C. for 4 hours, thus formed solution was centrifuged and then its supernatant was discarded. Subsequently, 100 μl of 100% ethanol was added to the residue so as to dissolve MTT formazan. Then, the absorbance (OD: 570 to 630) was measured by a microplate reader. This method utilizes a phenomenon in which MTT is changed to MTT formazan only by mitochondria of living cells so as to change color.
The cell damaging or cell protecting effect of the sample compound at the final concentration of 10^-4 M was expressed as cell damaging rate (%) as follows:
cell damaging rate (%)=(1-(absorbance in sample group/absorbance in control
Accordingly, the smaller value is better in the cell damaging rate.

Row | Compound | AT: single dose toxicity level [1] | inhibition at 10 µM [2] [%] | WIS: ulcer formation inhibitory rate [3] [%] | AHP: growth class where MIC was 100 μg/ml or more [4] | cytotoxicity at 4 h, 100 µM [5] [%]
1 | CC(C)=CCC/C(C)=C/COc1ccc(C(=O)NCCN(C(C)C)C(C)C)cc1 [Example 7] | 5 | 100 | 84 | + (the number of the colony on the plate containing the sample compound was less than 90% with respect to that on the control plate) | 
2 | CCN(CC)CCNC(=O)c1ccc(OC/C=C(\C)CCC=C(C)C)c(OC)c1 [Example 30] | 5 | 100 | 84 |  | 
3 | CCN(CC)CCNC(=O)c1cc(OC)c(OC)c(OC/C=C(\C)CCC=C(C)C)c1 [Example 39] | 4 |  | 87 |  | 
4 | CCN(CC)CCNC(=O)c1ccc(OCC=C(C)C)nc1 [Example 46] | 3 |  | 65 |  | -3
5 | CC(C)=CCOc1ccc(C(=O)NCCN(C(C)C)C(C)C)cn1 [Example 48] | 3 |  | 75 |  | -13
6 | CC(C)N(CCNC(=O)c1cccc(CN2CCCCC2)c1)C(C)C [Example 66] |  | 38.3 | 53 |  | 12
7 | CC(C)N(CCNC(=O)c1ccc(NC(=O)C(C)(C)C)cc1)C(C)C [Example 69] |  | 31.5 | 95 |  | 35
